One test has as its target T1, PARK7 (Homo sapiens, UniProt Q99497).
T1 sequence (Q99497 1-189): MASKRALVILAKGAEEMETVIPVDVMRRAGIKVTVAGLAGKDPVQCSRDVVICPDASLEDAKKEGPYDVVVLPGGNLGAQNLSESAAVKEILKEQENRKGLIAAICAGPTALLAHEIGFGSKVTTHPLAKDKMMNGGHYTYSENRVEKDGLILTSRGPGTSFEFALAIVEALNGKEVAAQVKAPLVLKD
In words: High-throughput screen of the crude compound library, PARK7 fluorescence polarization (FP) assay with FP reagent JYQ-107. The format is biochemical. Conditions: 1.25 µM, crude compound library, FP reagent JYQ-107; read-out: HTS FP assay %Inhibition (1.25 µM). A general note: In fluorescence polarisation assays a small probe gives low polarisation when free and higher when bound to something large.
Regarding `CC(C)C(=O)N1CCc2nc(NC(=O)[C@@H]3CCN(C#N)C3)sc2C1` [compound 392], the inhibition (in general, how much of the control response was suppressed) at 1.25 µM was 63%.

Consider `N#CN1CC[C@@H](C(=O)Nc2nc3c(s2)CN(C(=O)Cc2ccc(NS(=O)(=O)c4cccc(C(F)(F)F)c4)cc2)CC3)C1` [compound 385], for which the inhibition at 1.25 µM was determined as 81%. For the compound `N#CN1CC[C@@H](C(=O)Nc2nc3c(s2)CN(C(=O)c2ccccc2I)CC3)C1` [compound 391], the inhibition at 1.25 µM stood at 73.6%.

As to `N#CN1CC[C@@H](C(=O)Nc2nc3c(s2)CN(C(=O)c2ccc(C=O)cc2)CC3)C1` [compound 424], the inhibition at 1.25 µM was determined as 76.8%. As to `CCn1nc(C(C)C)cc1C(=O)N1CCCCC1C(=O)N1CCc2nc(NC(=O)[C@@H]3CCN(C#N)C3)sc2C1` (some centres unmarked) [compound 349], the inhibition at 1.25 µM was found to be 59.6%.

Take `N#CN1CC[C@@H](C(=O)Nc2nc3c(s2)CN(C(=O)c2ncn(-c4ccccc4)n2)CC3)C1` [compound 355]: the inhibition at 1.25 µM came out at 85.3%. As to `N#CN1CC[C@@H](C(=O)Nc2nc3c(s2)CN(C(=O)c2cnn(CC4CCC4)c2)CC3)C1` [compound 372], the inhibition at 1.25 µM was 81.6%. As for `N#CN1CC[C@@H](C(=O)Nc2nc3c(s2)CN(C(=O)Cc2csc(C4CC4)n2)CC3)C1` [compound 373], the inhibition at 1.25 µM was 81.4%. For the compound `C#CCCC(=O)N1CCc2nc(NC(=O)[C@@H]3CCN(C#N)C3)sc2C1` [compound 401], the inhibition at 1.25 µM amounted to 82.4%. Still for that read-out and setting: next, `CN1CCN(CC(=O)N2CCc3nc(NC(=O)[C@@H]4CCN(C#N)C4)sc3C2)CC1` [compound 463]: 67.3%; `N#CN1CC[C@@H](C(=O)Nc2nc3c(s2)CN(C(=O)Cc2ccc(OCc4ccccn4)cc2)CC3)C1` [compound 353]: 73.2%. On the same count and under the same terms, next, `CC(C)(C)OC(=O)NC1(C(=O)N2CCc3nc(NC(=O)[C@@H]4CCN(C#N)C4)sc3C2)CC1` [compound 447]: 68.7%. The same measure, in the same setting: next, `N#CN1CC[C@@H](C(=O)Nc2nc3c(s2)CN(C(=O)C(CCc2ccccc2)c2ccccc2)CC3)C1` (some centres unmarked) [compound 380]: 80.3%; `N#CN1CC[C@@H](C(=O)Nc2nc3c(s2)CN(C(=O)CNC(=O)c2ccccc2)CC3)C1` [compound 406]: 82.4%. As for `N#CN1CC[C@@H](C(=O)Nc2nc3c(s2)CN(C(=O)c2nccc4ccccc24)CC3)C1` [compound 417], the inhibition at 1.25 µM stood at 82.2%.

Turning to `Cc1c(Br)cccc1C(=O)N1CCc2nc(NC(=O)[C@@H]3CCN(C#N)C3)sc2C1` [compound 418], the inhibition at 1.25 µM stood at 81%.

The same test, now with this note: 1.25 µM, crude compound library; read-out: HTS FP assay %Inhibition (1.25 µM).
`Cc1nc(CN2CCCC2C(=O)N2CCc3nc(NC(=O)[C@@H]4CCN(C#N)C4)sc3C2)no1` (some centres unmarked) [compound 43]: the inhibition at 1.25 µM turned out to be 71.1%. The same measure, in the same setting: next, `N#CN1CC[C@@H](C(=O)Nc2nc3c(s2)CN(C(=O)c2cccc(S(=O)(=O)Nc4ccc(Cl)cc4)c2)CC3)C1` [compound 50]: 86.7%; `Cc1ccc(CN2C(=O)CCC2C(=O)N2CCc3nc(NC(=O)[C@@H]4CCN(C#N)C4)sc3C2)cc1` (some centres unmarked) [compound 254]: 53.9%; `N#CN1CC[C@@H](C(=O)Nc2nc3c(s2)CN(C(=O)c2ccc(-c4nnco4)cc2)CC3)C1` [compound 301]: 85.9%. On the same count and under the same terms, next, `N#CN1CC[C@@H](C(=O)Nc2nc3c(s2)CN(C(=O)c2nc(OCC4CC4)ccc2Cl)CC3)C1` [compound 238]: 53.7%.

As for `N#CN1CC[C@@H](C(=O)Nc2nc3c(s2)CN(C(=O)c2c(-c4ccccc4)noc2C(F)F)CC3)C1` [compound 93], the inhibition at 1.25 µM stood at 60.9%. The same measure, in the same setting: next, `Cc1ccc(C=CS(=O)(=O)N2CCC(C(=O)N3CCc4nc(NC(=O)[C@@H]5CCN(C#N)C5)sc4C3)CC2)cc1` [compound 344]: 72%. With `CCn1cc([C@@H]2OCCC[C@H]2C(=O)N2CCc3nc(NC(=O)[C@@H]4CCN(C#N)C4)sc3C2)cn1` [compound 318], the inhibition at 1.25 µM turned out to be 65.8%. On the same count and under the same terms, to `Cn1cc(-c2ocnc2C(=O)N2CCc3nc(NC(=O)[C@@H]4CCN(C#N)C4)sc3C2)cn1` [compound 18] belongs 60.9%; to `CN1CCN(C(=O)c2ccccc2C(=O)N2CCc3nc(NC(=O)[C@@H]4CCN(C#N)C4)sc3C2)CC1` [compound 129], 71.3%; to `COc1ccccc1N1CC(C(=O)N2CCc3nc(NC(=O)[C@@H]4CCN(C#N)C4)sc3C2)CCC1=O` (some centres unmarked) [compound 327], 70%. For the compound `CCS(=O)(=O)N1CCC(C(=O)N2CCc3nc(NC(=O)[C@@H]4CCN(C#N)C4)sc3C2)(c2ccccc2)CC1` [compound 150], the inhibition at 1.25 µM was determined as 62.5%.

For the compound `N#CN1CC[C@@H](C(=O)Nc2nc3c(s2)CN(C(=O)c2cc(N4CCOCC4)ccn2)CC3)C1` [compound 201], the inhibition at 1.25 µM turned out to be 72.2%. On the same count and under the same terms, next, `N#CN1CC[C@@H](C(=O)Nc2nc3c(s2)CN(C(=O)C2CC4CCC2O4)CC3)C1` (some centres unmarked) [compound 273]: 67.4%.

Consider `Cc1nn(C2CCOCC2)c(C)c1C(=O)N1CCc2nc(NC(=O)[C@@H]3CCN(C#N)C3)sc2C1` [compound 135], for which the inhibition at 1.25 µM is 63%. On to `COc1ccc(C(=O)N2CCc3nc(NC(=O)[C@@H]4CCN(C#N)C4)sc3C2)cc1S(=O)(=O)N(C)CCc1cccnc1` [compound 290], for which the inhibition at 1.25 µM amounted to 67.7%. For the compound `N#CN1CC[C@@H](C(=O)Nc2nc3c(s2)CN(C(=O)c2sccc2S(=O)(=O)NCc2ccco2)CC3)C1` [compound 236], the inhibition at 1.25 µM was found to be 58.7%. On the same count and under the same terms, next, `N#CN1CC[C@@H](C(=O)Nc2nc3c(s2)CN(C(=O)C2(NS(=O)(=O)C=Cc4ccccc4)CCCC2)CC3)C1` [compound 251]: 66.6%. `CC1CC1C(=O)N1CCCCC1C(=O)N1CCc2nc(NC(=O)[C@@H]3CCN(C#N)C3)sc2C1` (some centres unmarked) [compound 61]: the inhibition at 1.25 µM was found to be 70.5%.

With `N#CN1CC[C@@H](C(=O)Nc2nc3c(s2)CN(C(=O)c2ccc(-c4ccncc4)[nH]c2=O)CC3)C1` [compound 330], the inhibition at 1.25 µM came to 64.2%. On to `N#CN1CC[C@@H](C(=O)Nc2nc3c(s2)CN(C(=O)c2snnc2-c2ccc(Br)cc2)CC3)C1` [compound 42], for which the inhibition at 1.25 µM is 69.7%. As to `Cc1nc(-c2c[nH]c(C(=O)N3CCc4nc(NC(=O)[C@@H]5CCN(C#N)C5)sc4C3)c2)cs1` [compound 161], the inhibition at 1.25 µM turned out to be 86.4%. In the case of `Cc1n[nH]c(C)c1S(=O)(=O)N1CCC(C(=O)N2CCc3nc(NC(=O)[C@@H]4CCN(C#N)C4)sc3C2)CC1` [compound 120], the inhibition at 1.25 µM amounted to 46.4%. On to `N#CN1CC[C@@H](C(=O)Nc2nc3c(s2)CN(C(=O)C(=O)N2CCN(c4ccccc4)CC2)CC3)C1` [compound 177], for which the inhibition at 1.25 µM came to 78.6%. For `Cc1nn(-c2cccnc2)nc1C(=O)N1CCc2nc(NC(=O)[C@@H]3CCN(C#N)C3)sc2C1` [compound 230], the inhibition at 1.25 µM came to 62.8%.

Regarding `N#CN1CC[C@@H](C(=O)Nc2nc3c(s2)CN(C(=O)C2COCCN2C(=O)OCc2ccccc2)CC3)C1` (some centres unmarked) [compound 181], the inhibition at 1.25 µM came out at 72.7%. Still for that read-out and setting: next, `Cc1ccc(S(=O)(=O)NCCc2ccc(F)cc2)cc1C(=O)N1CCc2nc(NC(=O)[C@@H]3CCN(C#N)C3)sc2C1` [compound 247]: 86.9%; `N#CN1CC[C@@H](C(=O)Nc2nc3c(s2)CN(C(=O)c2ccnn2C2CCC2)CC3)C1` [compound 232]: 76%. With `N#CN1CC[C@@H](C(=O)Nc2nc3c(s2)CN(C(=O)c2cc(S(=O)(=O)Nc4nccs4)ccc2F)CC3)C1` [compound 321], the inhibition at 1.25 µM was found to be 81.4%. For the compound `N#CN1CC[C@@H](C(=O)Nc2nc3c(s2)CN(C(=O)c2cnc(Cc4ccc(F)cc4)s2)CC3)C1` [compound 298], the inhibition at 1.25 µM came to 79.5%. Consider `CN(Cc1ccnn1C)C(=O)C1CCCCC1C(=O)N1CCc2nc(NC(=O)[C@@H]3CCN(C#N)C3)sc2C1` (some centres unmarked) [compound 193], for which the inhibition at 1.25 µM was found to be 73%.

Regarding `Cc1onc(-c2ccncc2)c1C(=O)N1CCc2nc(NC(=O)[C@@H]3CCN(C#N)C3)sc2C1` [compound 224], the inhibition at 1.25 µM turned out to be 73.5%. As to `CCOc1oc(-c2ccco2)nc1C(=O)N1CCc2nc(NC(=O)[C@@H]3CCN(C#N)C3)sc2C1` [compound 246], the inhibition at 1.25 µM was 82.7%. For the compound `N#CN1CC[C@@H](C(=O)Nc2nc3c(s2)CN(C(=O)C2CCOC4(CCC4)C2)CC3)C1` (some centres unmarked) [compound 136], the inhibition at 1.25 µM is 80.8%.

Consider `CN(Cc1cccnc1)S(=O)(=O)c1cc(C(=O)N2CCc3nc(NC(=O)[C@@H]4CCN(C#N)C4)sc3C2)n(C)c1` [compound 119], for which the inhibition at 1.25 µM worked out at 71.9%. As for `N#CN1CC[C@@H](C(=O)Nc2nc3c(s2)CN(C(=O)C2CCCN2C(=O)Cc2ccccc2)CC3)C1` (some centres unmarked) [compound 144], the inhibition at 1.25 µM amounted to 78.4%. Still for that read-out and setting: to `N#CN1CC[C@@H](C(=O)Nc2nc3c(s2)CN(C(=O)CC(O)(c2nccn2Cc2ccccc2)C(F)(F)F)CC3)C1` (some centres unmarked) [compound 29] belongs 78.4%; to `N#CN1CC[C@@H](C(=O)Nc2nc3c(s2)CN(C(=O)Cc2ccc(OCCOc4ccccc4)cc2)CC3)C1` [compound 212], 85.1%. As for `Cc1noc(C)c1S(=O)(=O)N1CCCC1C(=O)N1CCc2nc(NC(=O)[C@@H]3CCN(C#N)C3)sc2C1` (some centres unmarked) [compound 259], the inhibition at 1.25 µM amounted to 69.8%. `CC1CN(c2ccc(C(=O)N3CCc4nc(NC(=O)[C@@H]5CCN(C#N)C5)sc4C3)cn2)CC(C)O1` (some centres unmarked) [compound 269]: the inhibition at 1.25 µM stood at 85.9%. The same measure, in the same setting: to `Cc1onc(C(=O)N2CCc3nc(NC(=O)[C@@H]4CCN(C#N)C4)sc3C2)c1CN1CCOCC1` [compound 281] belongs 62.3%; to `N#CN1CC[C@@H](C(=O)Nc2nc3c(s2)CN(C(=O)Cc2csc(NS(=O)(=O)c4ccccc4)n2)CC3)C1` [compound 339], 82.7%; to `N#CN1CC[C@@H](C(=O)Nc2nc3c(s2)CN(C(=O)Cc2csc(-c4cnccn4)n2)CC3)C1` [compound 8], 71.4%.

The values above are taken from article PMC11129182, “Development of Inhibitors, Probes, and PROTAC Provides a Complete Toolbox to Study PARK7 in the Living Cell” (Journal of Medicinal Chemistry, 2024).
